Results as given in patent publication US6492405B2, “Nitric oxide donors and pharmaceutical compositions containing them” (Yissum Research Development Company of the Hebrew …, priority 1999, dated 2002).

Tested on: vascular cGMP
Assay: vasorelaxant activity measured as increase in vascular cGMP in rat aorta after i.v. push, before and after 18 hr continuous i.v. infusion
Type: in vivo, male Sprague-Dawley rats
Conditions: for cGMP Post-infusion / cGMP Pre-infusion: rat aorta, i.v. push, nitroglycerin equimolar doses; for cGMP Post-infusion: after 18 hr continuous i.v. infusion of the same compound; for cGMP Pre-infusion: before 18 hr continuous i.v. infusion
Experimental: Representative for the new compounds, the vasorelaxant activities (measured as the ability of the tested drug to induce an increase in vascular cGMP) of the example compounds 1 to 6 were determined and compared to activity of nitroglycerin under the same experimental conditions following single and sustained exposure of rats to the compound.
For this purpose the compound to be tested was administered, in each case, to 8 male Sprague-Dawley rats (300-400 g) before and after an 18 hr continuous intravenous infusion of the compound. […] After drug administration (i.v. push), the rat was sacrificed, the aorta immediately removed and processed for cGMP measurement as has been described in detail by us. All of the tested new compounds were utilized in nitroglycerin equimolar doses, either before of after the “tolerance” induction period.
The following table summarizes the results obtained following administration of either nitroglycerin or the tested compounds before and after an 18 hr continuous exposure to the same compound: […]

Row | Compound | cGMP Post-infusion | cGMP Pre-infusion | tolerance to the cGMP-inducing activity (after 18 hr continuous in vivo administration)
1 | 1,1′-Bisthiomethyl-3,4-dihydroxy-cyclohexane-dinitrate ester [Compound 4] | 169 ± 13 pmol/g tissue | 149 ± 11 pmol/g tissue | –
2 | O=[N+]([O-])OCC(CO[N+](=O)[O-])O[N+](=O)[O-] [Nitroglycerin, nitroglycerin, reference compound] | 68 ± 9 pmol/g tissue | 153 ± 13 pmol/g tissue | developed early
3 | O=[N+]([O-])OCC1(CO[N+](=O)[O-])CCSSC1 [Compound 3, 1,1-Diemethanol-dinitrate-3,4-dithiane] | 174 ± 16 pmol/g tissue | 171 ± 14 pmol/g tissue | –
4 | 1,2-Dihydroxy-dinitrate-6,8-dithiane [Compound 6] | 179 ± 12 pmol/g tissue | 193 ± 17 pmol/g tissue | –
5 | O=[N+]([O-])OCCCCCC1CCSS1 (centres unmarked) [Compound 5, Thioctyl Alcohol Nitrate Ester] | 113 ± 11 pmol/g tissue | 123 ± 13 pmol/g tissue | –
